# Laboratory results: US7247617B2, “Sixteen-member macrolide antiinfective agents” (Kosan Biosciences Incorporated, priority 2004, dated 2007)
# How the values were obtained:
# S. pneumoniae = experiment: Biological activity against bacterial strains: S. pneumoniae; type: cell-based, Streptococcus pneumoniae; set-up: Biological Activity, S. pneumoniae ATCC6301 / Biological Activity, S. pneumoniae ATCC700671 / Biological Activity, S. pneumoniae ATCC700676* / Biological Activity, S. pneumoniae ATCC700677* / Biological Activity, S. pneumoniae ATCC700905* / Biological Activity, S. pneumoniae ATCC700906* / Biological Activity, S. pneumoniae ATCC49619: unit not given here; conditions: for Biological Activity, S. pneumoniae ATCC6301: strain ATCC6301; for Biological Activity, S. pneumoniae ATCC49619: strain ATCC49619; for Biological Activity, S. pneumoniae ATCC700671: strain ATCC700671; for Biological Activity, S. pneumoniae ATCC700676*: strain ATCC700676, macrolide resistant strain; for Biological Activity, S. pneumoniae ATCC700677*: strain ATCC700677, macrolide resistant strain; for Biological Activity, S. pneumoniae ATCC700905*: strain ATCC700905, macrolide resistant strain; for Biological Activity, S. pneumoniae ATCC700906*: strain ATCC700906, macrolide resistant strain
# S. aureus = experiment: Biological activity against bacterial strains: S. aureus; type: cell-based, Staphylococcus aureus; set-up: unit not given here; conditions: for Biological Activity, S. aureus ATCC6538p: strain ATCC6538p; for Biological Activity, S. aureus ATCC14154*: strain ATCC14154, macrolide resistant strain; for Biological Activity, S. aureus ATCC29213: strain ATCC29213; for Biological Activity, S. aureus ATCC33591*: strain ATCC33591, macrolide resistant strain; for Biological Activity, S. aureus ATCCBAA-39*: strain ATCCBAA-39, macrolide resistant strain; for Biological Activity, S. aureus ATCCBAA-44*: strain ATCCBAA-44, macrolide resistant strain
# S. epidermidis = experiment: Biological activity against bacterial strains: S. epidermidis; type: cell-based, Staphylococcus epidermidis; conditions: strain ATCC12228
# E. faecalis = experiment: Biological activity against bacterial strains: E. faecalis; type: cell-based, Enterococcus faecalis; conditions: strain ATCC51575
Compound,"Biological Activity, S. pneumoniae ATCC6301 (S. pneumoniae)","Biological Activity, S. pneumoniae ATCC49619 (S. pneumoniae)","Biological Activity, S. pneumoniae ATCC700671 (S. pneumoniae)","Biological Activity, S. pneumoniae ATCC700676* (S. pneumoniae)","Biological Activity, S. pneumoniae ATCC700677* (S. pneumoniae)","Biological Activity, S. pneumoniae ATCC700905* (S. pneumoniae)","Biological Activity, S. pneumoniae ATCC700906* (S. pneumoniae)","Biological Activity, S. aureus ATCC6538p (S. aureus)","Biological Activity, S. aureus ATCC14154* (S. aureus)","Biological Activity, S. aureus ATCC29213 (S. aureus)","Biological Activity, S. aureus ATCC33591* (S. aureus)","Biological Activity, S. aureus ATCCBAA-39* (S. aureus)","Biological Activity, S. aureus ATCCBAA-44* (S. aureus)","Biological Activity, S. epidermidis ATCC12228 (S. epidermidis)","Biological Activity, E. faecalis ATCC51575 (E. faecalis)"
"CCC1OC(=O)CC(O)C(C)C(OC2OC(C)C(O)C(N(C)C)C2O)C(CC=O)CC(C)C(=NOCC=Cc2cnc3ccccc3c2)C=CC(C)=CC1CO (single isomer, unassigned) [Compound G]",0.025,0.025,0.025,0.049,>12.5,0.049,>12.5,0.20,0.78,0.78,>12.5,>12.5,>12.5,0.39,>12.5
"CCC1OC(=O)CC(O)C(C)C(OC2OC(C)C(O)C(N(C)C)C2O)C(CCN2CC(C)CC(C)C2)CC(C)C(=NOCCCOc2ccc3ncccc3c2)C=CC(C)=CC1COC1OC(C)C(O)C(OC)C1OC (single isomer, unassigned) [Compound K]",0.01,0.098,0.025,0.049,0.049,0.20,>12.5,0.20,0.39,0.39,>12.5,>12.5,>12.5,0.39,>12.5
"CCC1OC(=O)CC(O)C(C)C(OC2OC(C)C(O)C(N(C)C)C2O)C(CCN2CC(C)CC(C)C2)CC(C)C(=NOCCCOc2ccc3ncccc3c2)C=CC(C)=CC1COC1OC(C)C(O)C(OC)C1OC (single isomer, unassigned) [Compound L]",0.01,0.025,0.01,0.049,0.025,0.098,>12.5,0.20,0.20,0.20,>12.5,>12.5,>12.5,0.20,>12.5
"CCC1OC(=O)CC(O)C(C)C(OC2OC(C)C(O)C(N(C)C)C2O)C(CCN2CC(C)CC(C)C2)CC(C)C(=NOCCCCOc2ccc3ncccc3c2)C=CC(C)=CC1COC1OC(C)C(O)C(OC)C1OC (single isomer, unassigned) [Compound M]",0.01,0.01,0.01,1.56,6.25,1.56,>12.5,0.78,1.56,1.56,>12.5,>12.5,>12.5,1.56,>12.5
"CCC1OC(=O)CC(O)C(C)C(OC2OC(C)C(O)C(N(C)C)C2O)C(CCN2CC(C)CC(C)C2)CC(C)C(=NOCCCCOc2ccc3ncccc3c2)C=CC(C)=CC1COC1OC(C)C(O)C(OC)C1OC (single isomer, unassigned) [Compound N]",0.025,0.098,0.049,1.56,6.25,0.78,>12.5,0.78,1.56,3.12,>12.5,>12.5,>12.5,3.12,>12.5
"CCC1OC(=O)CC(O)C(C)C(OC2OC(C)C(O)C(N(C)C)C2O)C(CCN2CC(C)CC(C)C2)CC(C)C(=NOCc2ccc(F)cc2)C=CC(C)=CC1COC1OC(C)C(O)C(OC)C1OC (single isomer, unassigned) [Compound P]",0.39,0.78,0.78,3.12,6.25,3.12,12.5,0.39,6.25,0.78,>12.5,>12.5,>12.5,0.78,>12.5
"CCC1OC(=O)CC(O)C(C)C(OC2OC(C)C(O)C(N(C)C)C2O)C(CCN2CC(C)CC(C)C2)CC(C)C(=NOCc2ccc(F)cc2)C=CC(C)=CC1COC1OC(C)C(O)C(OC)C1OC (single isomer, unassigned) [Compound Q]",0.20,0.39,0.39,0.78,6.25,0.78,12.5,0.20,0.78,0.78,12.5,>12.5,>12.5,0.78,>12.5
"CCC1OC(=O)CC(O)C(C)C(OC2OC(C)C(O)C(N(C)C)C2O)C(CCN2CC(C)CC(C)C2)CC(C)C(=NOCCCCOc2ccc3ncccc3c2)C=CC(C)=CC1CO (single isomer, unassigned) [Compound T]",1.56,6.25,3.12,6.25,>12.5,6.25,>12.5,6.25,>12.5,12.5,>12.5,>12.5,>12.5,>12.5,>12.5
